In patent US12691112B2, “FGFR tyrosine kinase inhibitors for the treatment of urothelial carcinoma” (Janssen Pharmaceutica NV, priority 2019, dated 2026):
Like-named read-outs stand apart in the source and are kept apart here.

System: subjects with metastatic or surgically unresectable urothelial cancer
Conditions: all-causality
Method: Study treatment was administered on 28-day cycles. […] Patients were randomized 1:1 to 28-day cycles to the following 2 regimens until a regimen was selected for further study: Regimen 1 (10 mg once daily intermittent (7 days on/7 days); Regimen 2 (6 mg once daily continuous). Randomization was stratified according to performance status (0 to 1 vs. 2), hemoglobin value (<10 vs. ≥10 g per dl), FGFR alteration type (mutation vs. fusion), prior treatment status (chemotherapy-resistant vs. chemotherapy naïve), and disease distribution (presence or absence of visceral [liver, lung, bone]metastases). Starting dose selection was based on phase 1 efficacy and tolerability.
Based on interim analysis and pharmacokinetic-pharmacodynamic modeling of serum phosphate levels, starting dose was increased to 8 mg per day continuous (Regimen 3). Thus, after interim analysis, this became a single-arm study. […] Treatment continued until disease progression or unacceptable adverse event(s) per investigator.
Safety was evaluated based on clinical laboratory tests, physical exams, electrocardiograms, and ophthalmology examinations. Adverse events and abnormalities were assessed by investigator and graded per NCI CTCAE v.4.0
Prophylactic measures were taken to minimize risk of common adverse events related to FGFR inhibition. To reduce risk of hyperphosphatemia, a low-phosphate diet was recommended for all patients (600 to 800 mg of dietary phosphate intake per day). To reduce the risk of skin effects, the application of alcohol-free emollient moisturizing cream and avoidance of unnecessary exposure to sunlight, soap, perfumed products, and hot baths was recommended. Patients were asked to keep their fingers and toes clean and nails trimmed to reduce risk of nail effects.
Additional ophthalmology examinations were performed if clinically indicated.

## COc1cc(OC)cc(N(CCNC(C)C)c2ccc3ncc(-c4cnn(C)c4)nc3c2)c1 [erdafitinib, N-(3,5-dimethoxy-phenyl)-N′-(1-methylethyl)-N-[3-(1-methyl-1H-pyrazol-4-yl)quinoxalin-6-yl]ethane-1,2-diamine]
8 mg continuous, n = 99
  Constipation, grade ≥ 3: 1 no.
  Decreased appetite, any grade: 38 no.
  Decreased appetite, grade 1: 18 no.
  Decreased appetite, grade 2: 20 no.
  Decreased appetite, grade ≥ 3: 0 no.
  Diarrhea, any grade: 50 no.
  Diarrhea, grade 1: 31 no.
  Diarrhea, grade 2: 15 no.
  Diarrhea, grade ≥ 3: 4 no.
  Dry eye, any grade: 19 no.
  Dry eye, grade 1: 14 no.
  Dry eye, grade 2: 4 no.
  Dry eye, grade ≥ 3: 1 no.
  Dry mouth, any grade: 45 no.
  Dry mouth, grade 1: 34 no.
  Dry mouth, grade 2: 11 no.
  Dry mouth, grade ≥ 3: 0 no.
  Dry skin, any grade: 32 no.
  Dry skin, grade 1: 24 no.
  Dry skin, grade 2: 8 no.
  Dry skin, grade ≥ 3: 0 no.
  Dysgeusia, any grade: 37 no.
  Dysgeusia, grade 1: 23 no.
  Dysgeusia, grade 2: 13 no.
  Dysgeusia, grade ≥ 3: 1 no.
  Dyspepsia, any grade: 11 no.
  Dyspepsia, grade 1: 10 no.
  Dyspepsia, grade 2: 1 no.
  Dyspepsia, grade ≥ 3: 0 no.
  Dyspnea, any grade: 8 no.
  Dyspnea, grade 1: 4 no.
  Dyspnea, grade 2: 2 no.
  Dyspnea, grade ≥ 3: 2 no.
  Fatigue, any grade: 32 no.
  Fatigue, grade 1: 12 no.
  Fatigue, grade 2: 18 no.
  Fatigue, grade ≥ 3: 2 no.
  Hand-foot syndrome, any grade: 23 no.
  Hand-foot syndrome, grade 1: 6 no.
  Hand-foot syndrome, grade 2: 12 no.
  Hand-foot syndrome, grade ≥ 3: 5 no.
  Hematuria, any grade: 10 no.
  Hematuria, grade 1: 7 no.
  Hematuria, grade 2: 1 no.
  Hematuria, grade ≥ 3: 2 no.
  Hyperphosphatemia, any grade: 76 no.
  Hyperphosphatemia, grade 1: 53 no.
  Hyperphosphatemia, grade 2: 21 no.
  Hyperphosphatemia, grade ≥ 3: 2 no.
  Hypomagnesemia, any grade: 10 no.
  Hypomagnesemia, grade 1: 9 no.
  Hypomagnesemia, grade 2: 1 no.
  Hypomagnesemia, grade ≥ 3: 0 no.
  Hyponatremia, any grade: 12 no.
  Hyponatremia, grade 1: 1 no.
  Hyponatremia, grade 2: 0 no.
  Hyponatremia, grade ≥ 3: 11 no.
  Insomnia, any grade: 7 no.
  Insomnia, grade 1: 4 no.
  Insomnia, grade 2: 3 no.
  Insomnia, grade ≥ 3: 0 no.
  Lacrimation increased, any grade: 11 no.
  Lacrimation increased, grade 1: 8 no.
  Lacrimation increased, grade 2: 3 no.
  Lacrimation increased, grade ≥ 3: 0 no.
  Nail dystrophy, any grade: 16 no.
  Nail dystrophy, grade 1: 5 no.
  Nail dystrophy, grade 2: 5 no.
  Nail dystrophy, grade ≥ 3: 6 no.
  Nausea, any grade: 20 no.
  Nausea, grade 1: 13 no.
  Nausea, grade 2: 6 no.
  Nausea, grade ≥ 3: 1 no.
  Onycholysis, any grade: 18 no.
  Onycholysis, grade 1: 6 no.
  Onycholysis, grade 2: 10 no.
  Onycholysis, grade ≥ 3: 2 no.
  Onychomadesis, any grade: 7 no.
  Onychomadesis, grade 1: 2 no.
  Onychomadesis, grade 2: 5 no.
  Onychomadesis, grade ≥ 3: 0 no.
  Oropharyngeal pain, any grade: 10 no.
  Oropharyngeal pain, grade 1: 8 no.
  Oropharyngeal pain, grade 2: 1 no.
  Oropharyngeal pain, grade ≥ 3: 1 no.
  Pain in extremity, any grade: 12 no.
  Pain in extremity, grade 1: 10 no.
  Pain in extremity, grade 2: 2 no.
  Pain in extremity, grade ≥ 3: 0 no.
  Paronychia, any grade: 17 no.
  Paronychia, grade 1: 3 no.
  Paronychia, grade 2: 11 no.
  Paronychia, grade ≥ 3: 3 no.
  Peripheral edema, any grade: 9 no.
  Peripheral edema, grade 1: 5 no.
  Peripheral edema, grade 2: 3 no.
  Peripheral edema, grade ≥ 3: 1 no.
  Pyrexia, any grade: 13 no.
  Pyrexia, grade 1: 8 no.
  Pyrexia, grade 2: 5 no.
  Pyrexia, grade ≥ 3: 0 no.
  Retinal detachment, any grade: 5 no.
  Retinal detachment, grade 1: 3 no.
  Retinal detachment, grade 2: 2 no.
  Retinal detachment, grade ≥ 3: 0 no.
  Stomatitis, any grade: 57 no.
  Stomatitis, grade 1: 21 no.
  Stomatitis, grade 2: 26 no.
  Stomatitis, grade ≥ 3: 10 no.
  Urinary tract infection, any grade: 16 no.
  Urinary tract infection, grade 1: 0 no.
  Urinary tract infection, grade 2: 11 no.
  Urinary tract infection, grade ≥ 3: 5 no.
  Vision blurred, any grade: 17 no.
  Vision blurred, grade 1: 10 no.
  Vision blurred, grade 2: 7 no.
  Vision blurred, grade ≥ 3: 0 no.
  Vomiting, any grade: 13 no.
  Vomiting, grade 1: 10 no.
  Vomiting, grade 2: 1 no.
  Vomiting, grade ≥ 3: 2 no.
  Weight decreased, any grade: 15 no.
  Weight decreased, grade 1: 7 no.
  Weight decreased, grade 2: 8 no.
  Weight decreased, grade ≥ 3: 0 no.
10 mg intermittent, n = 33
  Abdominal pain, any grade: 5 no.
  Abdominal pain, grade 1: 2 no.
  Abdominal pain, grade 2: 2 no.
  Abdominal pain, grade ≥ 3: 1 no.
  Alanine aminotransferase increased, any grade: 1 no.
  Alanine aminotransferase increased, grade 1: 0 no.
  Alanine aminotransferase increased, grade 2: 1 no.
  Alanine aminotransferase increased, grade ≥ 3: 0 no.
  Alopecia, any grade: 4 no.
  Alopecia, grade 1: 2 no.
  Alopecia, grade 2: 2 no.
  Alopecia, grade ≥ 3: 0 no.
  Anemia, any grade: 8 no.
  Anemia, grade 1: 1 no.
  Anemia, grade 2: 1 no.
  Anemia, grade ≥ 3: 6 no.
  Arthralgia, any grade: 7 no.
  Arthralgia, grade 1: 3 no.
  Arthralgia, grade 2: 2 no.
  Arthralgia, grade ≥ 3: 2 no.
  Aspartate aminotransferase increased, any grade: 2 no.
  Aspartate aminotransferase increased, grade 1: 2 no.
  Aspartate aminotransferase increased, grade 2: 0 no.
  Aspartate aminotransferase increased, grade ≥ 3: 0 no.
  Asthenia, any grade: 10 no.
  Asthenia, grade 1: 5 no.
  Asthenia, grade 2: 3 no.
  Asthenia, grade ≥ 3: 2 no.
  Back pain, any grade: 5 no.
  Back pain, grade 1: 1 no.
  Back pain, grade 2: 1 no.
  Back pain, grade ≥ 3: 3 no.
  Blood creatinine increased, any grade: 4 no.
  Blood creatinine increased, grade 1: 3 no.
  Blood creatinine increased, grade 2: 1 no.
  Blood creatinine increased, grade ≥ 3: 0 no.
  Conjunctivitis, any grade: 4 no.
  Conjunctivitis, grade 1: 3 no.
  Conjunctivitis, grade 2: 1 no.
  Conjunctivitis, grade ≥ 3: 0 no.
  Constipation, any grade: 14 no.
  Constipation, grade 1: 8 no.
  Constipation, grade 2: 6 no.
  Constipation, grade ≥ 3: 0 no.
  Decreased appetite, any grade: 11 no.
  Decreased appetite, grade 1: 4 no.
  Decreased appetite, grade 2: 6 no.
